Where two headings read alike, the source gives them in different places.
Legend:
primary rat microglia [1] = test: Cell toxicity (dead cells, size <150 μm2) in LPS assay; details: primary microglia HTS
primary rat microglia [2] = test: Cell toxicity (dead cells, size <150 μm2) in coated fibrin (cFib) assay; details: primary microglia HTS;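 note: share of dead cells sized under 150 µm2 at 10 µM in fibrin-stimulated microglia HTS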
[3] = tested on: fibrin-induced microglia activation; test: Image-based assay of fibrin-induced microglia activation (HTS and dose response); assay type: cell-based, rat; details: for inhibition at 10 µM / Fibrin % inhibition: primary microglia HTS; for inhibition at 10 µM: read-out: Fibrin % inhibition
[4] = tested on: fibrin- and LPS-induced microglia activation; test: cells; assay type: cell-based, rat
[5] = tested on: LPS-induced microglia activation; test: Image-based assay of LPS-induced microglia activation (HTS and dose response); assay type: cell-based, rat; details: for inhibition at 10 µM / LPS % inhibition: primary microglia HTS; for inhibition at 10 µM: read-out: LPS % inhibition
[6] = 10 μM, LPS assay, cell size <150 μm^2 as marker of toxicity
[7] = 10 μM, fibrin assay, cell size <150 μm^2 as marker of toxicity
[8] = Rattus norvegicus, Microglia, 10 μM, fibrin-stimulated, cell size >800 μm^2 as marker of activation
[9] = HTS of 1907 compounds, quadrant by fibrin and LPS inhibition
[10] = Rattus norvegicus, Microglia, 10 μM, LPS-stimulated, cell size >800 μm^2 as marker of activation
[11] = 10 μM, fibrin-stimulated, cell size >800 μm^2 as marker of activation
[12] = 10 μM, LPS-stimulated, cell size >800 μm^2 as marker of activation
[13] = LPS stimulation, decreased size (<150 μm^2) as marker of toxicity
[14] = fibrin stimulation, decreased size (<150 μm^2) as marker of toxicity
[15] = Rattus norvegicus, Microglia, fibrin stimulation, increased cell size (>800 μm^2) as marker of activation
[16] = quadrant by fibrin and LPS inhibition in HTS of 1907 compounds
[17] = Rattus norvegicus, Microglia, 48 h, LPS stimulation, increased cell size (>800 μm^2) as marker of activation

Row | SMILES | LPS % cell toxicity (primary rat microglia [1]; [6]) [%] | Fibrin % cell toxicity (primary rat microglia [2]; [7]) [%] | inhibition at 10 µM [3, 8] [%] | Quadrant (FIG. 5b) [4, 9] | inhibition at 10 µM [5, 10] [%] | further results
1 | CC(=O)N(c1onc(C)c1C)S(=O)(=O)c1ccc(N)cc1 [Sulfisoxazole Acetyl] | 1 | 1 | -3 | Q4 | 17 | 
2 | Cc1noc(NS(=O)(=O)c2ccc(N)cc2)c1C [Sulfisoxazole] | 0 | 0 | -11 | Q4 | 6 | 
3 | CC1=C(CC(=O)O)c2cc(F)ccc2/C1=C\c1ccc(S(C)(=O)=O)cc1 [Sulindac Sulfone] | 0 | 1 |  | Q4 |  | Fibrin % inhibition [3, 11]: −27%; LPS % inhibition [5, 12]: 3%
4 | COc1cc(O)c(C(=O)c2ccccc2)cc1S(=O)(=O)O [Sulisobenzone] | 0 | 0 | -19 | Q4 | -2 | 
5 | CNS(=O)(=O)Cc1ccc2[nH]cc(CCN(C)C)c2c1 [Sumatriptan] | 0 | 1 | -7 | Q4 | 8 | 
6 | Cc1ccc(C(=O)Nc2ccc(S(=O)(=O)O)c3cc(S(=O)(=O)O)cc(S(=O)(=O)O)c23)cc1NC(=O)c1cccc(NC(=O)Nc2cccc(C(=O)Nc3cc(C(=O)Nc4ccc(S(=O)(=O)O)c5cc(S(=O)(=O)O)cc(S(=O)(=O)O)c45)ccc3C)c2)c1 [Suramin] | 0 | 0 | -5 | Q4 | 18 | 
7 | CCCCC1(COC(=O)CCC(=O)O)C(=O)N(c2ccccc2)N(c2ccccc2)C1=O [Suxibuzone] | 0 | 1 | 25 | Q4 | 23 | 
8 | CNCC(O)c1ccc(O)cc1 (stereo not shown) [Synephrine] | 0 | 0 | -16 | Q4 | 12 | 
9 | C=CC[C@@H]1/C=C(\C)C[C@H](C)C[C@H](OC)[C@H]2O[C@@](O)(C(=O)C(=O)N3CCCC[C@H]3C(=O)O[C@H](/C(C)=C/[C@@H]3CC[C@@H](O)[C@H](OC)C3)[C@H](C)[C@@H](O)CC1=O)[C@H](C)C[C@@H]2OC [Tacrolimus] | 0 | 1 | 27 | Q4 | 14 | 
10 | CN1CC(=O)N2[C@H](c3ccc4c(c3)OCO4)c3[nH]c4ccccc4c3C[C@@H]2C1=O [Tadalafil] | 0 | 1 | -1 | Q4 | 16 | 
11 | CCOc1ccccc1OCCN[C@H](C)Cc1ccc(OC)c(S(N)(=O)=O)c1.Cl [Tamsulosin Hydrchloride] | 0 | 0 |  | Q4 |  | Fibrin % inhibition [3, 11]: −31%; LPS % inhibition [5, 12]: 12%
12 | CCOc1ccccc1OCCN[C@H](C)Cc1ccc(OC)c(S(N)(=O)=O)c1 [Tamsulosin] |  |  |  |  |  | LPS % cell toxicity (primary rat microglia [1]; [13]): 2%; Fibrin % cell toxicity (primary rat microglia [2]; [14]): 1%; inhibition at 10 µM [3, 15]: 20%; Quadrant (FIG. 5b) [4, 16]: Q1; inhibition at 10 µM [5, 17]: 59%
13 | O=C(OC[C@H]1O[C@@H](OC(=O)c2cc(O)c(O)c(OC(=O)c3cc(O)c(O)c(O)c3)c2)[C@H](OC(=O)c2cc(O)c(O)c(OC(=O)c3cc(O)c(O)c(O)c3)c2)[C@@H](OC(=O)c2cc(O)c(O)c(OC(=O)c3cc(O)c(O)c(O)c3)c2)[C@@H]1OC(=O)c1cc(O)c(O)c(OC(=O)c2cc(O)c(O)c(O)c2)c1)c1cc(O)c(O)c(OC(=O)c2cc(O)c(O)c(O)c2)c1 [Tannic acid, reference compound] |  |  |  |  |  | LPS % cell toxicity (primary rat microglia [1]; [13]): 1%; Fibrin % cell toxicity (primary rat microglia [2]; [14]): 0%; IC50 ([3]; Rattus norvegicus, Microglia, Table 7, read-out: fib_IC50): 4.96 µM; inhibition at 10 µM [3, 15]: -60%; Quadrant (FIG. 5b) ([4]; Table 2, screen at 10 μM): Q4; Activity ([4]; Table 7, fib = fibrin, LPS, tox = toxicity): fib/LPS; Quadrant (FIG. 5b) [4, 16]: Q4; inhibition at 10 µM [5, 17]: 32%; IC50 ([5]; Rattus norvegicus, Microglia, Table 7, read-out: LPS_IC50): 4.38 µM
14 | CCCCC/C=C\CCC(=O)N[C@H]1[C@H](Oc2c3cc4cc2Oc2ccc(cc2Cl)[C@@H](O[C@@H]2O[C@H](CO)[C@@H](O)[C@H](O)[C@H]2NC(C)=O)[C@@H]2NC(=O)[C@H](NC(=O)[C@@H]4NC(=O)[C@H]4NC(=O)[C@@H](Cc5ccc(c(Cl)c5)O3)NC(=O)[C@H](N)c3ccc(O)c(c3)Oc3cc(O)cc4c3)c3ccc(O)c(c3)-c3c(O[C@H]4O[C@H](CO)[C@@H](O)[C@H](O)[C@@H]4O)cc(O)cc3[C@@H](C(=O)O)NC2=O)O[C@H](CO)[C@@H](O)[C@@H]1O [Teicoplanin [a(2-1) Shown]] | 0 | 1 |  | Q4 |  | Fibrin % inhibition [3, 11]: 43%; LPS % inhibition [5, 12]: 20%
15 | CCCc1nc2c(C)cc(-c3nc4ccccc4n3C)cc2n1Cc1ccc(-c2ccccc2C(=O)O)cc1 [Telmisartan] | 0 | 0 | -24 | Q4 | -2 | 

From patent publication US20210330611A1, “THERAPY FOR NEUROLOGICAL DISEASES/DISORDERS” (priority 2020, published 2021)
